# Like-named read-outs stand apart in the source and are kept apart here.
# What was measured:
# [1] = format: in vivo, human; conditions: for detectability in plasma: after single oral doses of dabigatran etexilate; for AUC(0-inf) / Cmax / Tmax: human, plasma, po
# [2] = cited from earlier work
# healthy subjects [3] = experiment: Safety and tolerability evaluation; format: in vivo, human
# [4] = system: activated partial thromboplastin time; conditions: 600 mg dose; achieved at 2–4 h post-dose; pilot study; cited from earlier work
# healthy subjects [5] = experiment: Thorough QT study: ECG profiles; format: in vivo, human; conditions: for Adjusted mean (SE) ∆ QTcI: time-matched change from baseline between 1.5 and 3 h post-dose, n=40; for ∆∆HR / ∆∆QTcI / ∆∆QT: mean (90 % CI)
# healthy subjects [6] = conditions: after a single dose; cited from earlier work
# [7] = following an oral dose without food; cited from earlier work
# [8] = system: isolated guinea pig papillary muscles; conditions: concentrations up to 10 μmol/L; cited from earlier work
# healthy subjects [9] = format: in vivo, human
# [10] = system: hERG-mediated potassium current; conditions: human embryonic kidney cells; cited from earlier work
# anaesthetised pigs = conditions: up to 3 mg/kg intravenously; cited from earlier work
# [11] = cited from earlier work; remark: listed apart in the source
# [12] = dabigatran etexilate 150 mg, 1:00 h post-dose
# [13] = dabigatran etexilate 150 mg, 1:30 h post-dose
# [14] = dabigatran etexilate 150 mg, 2:00 h post-dose
# [15] = dabigatran etexilate 150 mg, 3:00 h post-dose
# [16] = dabigatran etexilate 150 mg, 6:00 h post-dose
# [17] = dabigatran etexilate 150 mg, 12:00 h post-dose
# [18] = dabigatran etexilate 150 mg, 24:00 h post-dose
# [19] = dabigatran etexilate 150 mg, between 1 and 6 h post-dose
# [20] = dabigatran etexilate 600 mg, 1:00 h post-dose
# [21] = dabigatran etexilate 600 mg, 1:30 h post-dose
# [22] = dabigatran etexilate 600 mg, 2:00 h post-dose
# [23] = dabigatran etexilate 600 mg, 3:00 h post-dose
# [24] = dabigatran etexilate 600 mg, 6:00 h post-dose
# [25] = dabigatran etexilate 600 mg, 12:00 h post-dose
# [26] = dabigatran etexilate 600 mg, 24:00 h post-dose
# [27] = dabigatran etexilate 600 mg, between 1 and 6 h post-dose
# [28] = moxifloxacin 400 mg, 1:00 h post-dose
# [29] = moxifloxacin 400 mg, 1:30 h post-dose
# [30] = moxifloxacin 400 mg, 2:00 h post-dose
# [31] = moxifloxacin 400 mg, 3:00 h post-dose
# [32] = moxifloxacin 400 mg, 6:00 h post-dose
# [33] = at gMean Cmax of dabigatran etexilate 150 mg dose
# [34] = at gMean Cmax of dabigatran etexilate 600 mg dose
# [35] = exposure-response analysis for placebo-corrected CfB of HR, post hoc
# [36] = exposure-response analysis for placebo-corrected CfB of QTcI, post hoc
structure (smiles),measurement,setting,value
CCOC(=O)CCN(C(=O)c1ccc2c(c1)nc(CNc1ccc(C(=N)N)cc1)n2C)c1ccccn1 [BIBR951],detectability in plasma,[1],only detectable between 0.5 and 3 h post-dosing and then only in very low concentrations
CCCCCCOC(=O)NC(=N)c1ccc(NCc2nc3cc(C(=O)N(CCC(=O)O)c4ccccn4)ccc3n2C)cc1 [BIBR1087],detectability in plasma,[1],only detectable between 0.5 and 3 h post-dosing and then only in very low concentrations
CCCCCCOC(=O)NC(=N)c1ccc(NCc2nc3cc(C(=O)N(CCC(=O)OCC)c4ccccn4)ccc3n2C)cc1 [Dabigatran etexilate],steady-state concentration,[2]; patients receiving dabigatran etexilate 150 mg once daily,99.2 ng/mL
same,steady-state concentration,[2]; patients receiving dabigatran etexilate 150 mg twice daily,146 ng/mL
same,detectability in plasma,[1],only detectable between 0.5 and 3 h post-dosing and then only in very low concentrations
same,Mean Cmax with 600 mg relative to 150 mg dose,[1]; dabigatran etexilate 600 mg versus 150 mg,approximately fourfold higher
same,Cmax after 600 mg relative to steady-state concentration in patients,[1]; versus patients receiving dabigatran etexilate 150 mg once daily,4 times
same,Cmax after 600 mg relative to steady-state concentration in patients,[1]; versus patients receiving dabigatran etexilate 150 mg twice daily,2.6 times
same,subjects with adverse events within the treatment period,"healthy subjects [3]; dabigatran etexilate 150 mg, three subjects of 40",7.5%
same,subjects with adverse events within the treatment period,"healthy subjects [3]; dabigatran etexilate 600 mg, four subjects of 40",10%
same,tolerability,healthy subjects [3]; single oral doses of 150 mg and 600 mg,well tolerated
same,increase in activated partial thromboplastin time,[4],two- to threefold increase
same,upper bound of the two-sided 90 % CI of the largest time-matched mean difference from placebo (QTcI),"healthy subjects [5]; both dose levels (150 mg and 600 mg), 0.5 to 24 h post-dose",3 to 4 ms
same,"upper limit of 95 % CI, secondary endpoints (QTcI versus placebo)",healthy subjects [5]; both doses (150 mg and 600 mg),below 4 ms
same,"upper limit of the 95 % CI, primary endpoint (QTcI versus placebo)",healthy subjects [5]; both doses (150 mg and 600 mg),approximately 1.5 ms
same,Adjusted mean (SE) ∆ QTcI,healthy subjects [5]; dabigatran etexilate 150 mg single oral dose,−4.9 (1.1) ms
same,∆∆HR,healthy subjects [5]; [12],0.7 (−0.5 to 1.8) bpm
same,∆∆QTcI,healthy subjects [5]; [12],−0.1 (−2.5 to 2.2) ms
same,∆∆HR,healthy subjects [5]; [13],−0.3 (−1.4 to 0.8) bpm
same,∆∆QT,healthy subjects [5]; [13],−0.6 (−3.3 to 2.1) ms
same,∆∆QTcI,healthy subjects [5]; [13],−1.4 (−3.2 to 0.4) ms
same,∆∆HR,healthy subjects [5]; [14],−0.3 (−1.5 to 0.8) bpm
same,∆∆QT,healthy subjects [5]; [14],−0.2 (−2.9 to 2.6) ms
same,∆∆QTcI,healthy subjects [5]; [14],−0.7 (−2.9 to 1.6) ms
same,∆∆QT,healthy subjects [5]; [15],−1.9 (−4.9 to 1.0) ms
same,∆∆QTcI,healthy subjects [5]; [15],−1.1 (−3.3 to 1.2) ms
same,∆∆QT,healthy subjects [5]; [16],−0.5 (−3.8 to 2.7) ms
same,∆∆QTcI,healthy subjects [5]; [16],−0.4 (−3.0 to 2.2) ms
same,∆∆HR,healthy subjects [5]; [17],−0.4 (−1.7 to 0.9) bpm
same,∆∆QT,healthy subjects [5]; [17],1.3 (−1.8 to 4.5) ms
same,∆∆QTcI,healthy subjects [5]; [17],0.9 (−1.7 to 3.5) ms
same,∆∆HR,healthy subjects [5]; [18],−0.1 (−1.1 to 1.0) bpm
same,∆∆QT,healthy subjects [5]; [18],−0.2 (−2.8 to 2.5) ms
same,∆∆QTcI,healthy subjects [5]; [18],−0.1 (−1.9 to 1.7) ms
same,mean time-matched CfB of QTcI,healthy subjects [5]; [19],-5.3 ms
same,upper bound of the two-sided 90 % CI of placebo-adjusted CfB of QTcI,healthy subjects [5]; [19],1.5 ms
same,upper bound of the two-sided 90 % CI of placebo-adjusted CfB of QTcI,"healthy subjects [5]; dabigatran etexilate 150 mg, between 1.5 and 3 h post-dose",1.4 ms
same,Adjusted mean (SE) ∆ QTcI,healthy subjects [5]; dabigatran etexilate 600 mg single oral dose,−5.0 (1.1) ms
same,∆∆HR,healthy subjects [5]; [20],0.5 (−0.6 to 1.6) bpm
same,∆∆QT,healthy subjects [5]; [20],−1.8 (−5.2 to 1.5) ms
same,∆∆QTcI,healthy subjects [5]; [20],−1.5 (−3.8 to 0.9) ms
same,∆∆HR,healthy subjects [5]; [21],−0.3 (−1.5 to 0.8) bpm
same,∆∆QT,healthy subjects [5]; [21],−0.6 (−3.3 to 2.1) ms
same,∆∆QTcI,healthy subjects [5]; [21],−1.7 (−3.5 to 0.2) ms
same,∆∆HR,healthy subjects [5]; [22],−1.1 (−2.2 to 0.1) bpm
same,∆∆QT,healthy subjects [5]; [22],−0.9 (−3.7 to 1.8) ms
same,∆∆QTcI,healthy subjects [5]; [22],−2.6 (−4.8 to −0.4) ms
same,∆∆HR,healthy subjects [5]; [23],1.5 (−0.1 to 2.9) bpm
same,∆∆QT,healthy subjects [5]; [23],−2.9 (−5.8 to 0.1) ms
same,∆∆QTcI,healthy subjects [5]; [23],−1.1 (−3.3 to 1.1) ms
same,∆∆HR,healthy subjects [5]; [24],0.6 (−0.7 to 1.9) bpm
same,∆∆QT,healthy subjects [5]; [24],−1.1 (−4.3 to 2.2) ms
same,∆∆QTcI,healthy subjects [5]; [24],−0.8 (−3.4 to 1.8) ms
same,∆∆HR,healthy subjects [5]; [25],−0.2 (−1.5 to 1.1) bpm
same,∆∆QT,healthy subjects [5]; [25],1.0 (−2.1 to 4.2) ms
same,∆∆QTcI,healthy subjects [5]; [25],0.4 (−2.2 to 3.0) ms
same,∆∆HR,healthy subjects [5]; [26],1.1 (0.0 to 2.2) bpm
same,∆∆QTcI,healthy subjects [5]; [26],−1.6 (−3.4 to 0.2) ms
same,mean time-matched CfB of QTcI,healthy subjects [5]; [27],-5.4 ms
same,upper bound of the two-sided 90 % CI of placebo-adjusted CfB of QTcI,healthy subjects [5]; [27],1.4 ms
same,upper bound of the two-sided 90 % CI of placebo-adjusted CfB of QTcI,"healthy subjects [5]; dabigatran etexilate 600 mg, between 1.5 and 3 h post-dose",1.3 ms
same,"prolongation of QTcN, QTcF, uncorrected QT and QTcB",healthy subjects [5]; either dabigatran etexilate dose,none of these parameters was prolonged
same,prolongation of the QT interval,healthy subjects [5]; overall study result,≤ 5 ms
same,QT prolongation or arrhythmogenic effects (conclusion),healthy subjects [5]; therapeutic (150 mg) and supratherapeutic (600 mg) doses,not associated with QT prolongation or arrhythmogenic effects
"COc1c(N2C[C@@H]3CCCN[C@@H]3C2)c(F)cc2c(=O)c(C(=O)O)cn(C3CC3)c12 [Moxifloxacin, moxifloxacin]",QT-interval prolongation,healthy subjects [6],8 to 14 ms
same,Global tolerability (good / satisfactory / not satisfactory / bad),healthy subjects [3]; investigator-assessed,one subject who responded ‘not satisfactory’
same,subjects with adverse events within the treatment period,"healthy subjects [3]; moxifloxacin 400 mg, one subject of 40 ('feeling dazed')",2.5%
same,time of peak plasma concentration,[7],1 to 4 h
same,∆∆HR,healthy subjects [5]; [28],2.4 (0.9 to 3.8) bpm
same,∆∆QT,healthy subjects [5]; [28],8.3 (4.7 to 11.9) ms
same,∆∆QTcI,healthy subjects [5]; [28],11.1 (8.4 to 13.8) ms
same,∆∆HR,healthy subjects [5]; [29],1.3 (0.1 to 2.5) bpm
same,∆∆QT,healthy subjects [5]; [29],11.9 (8.3 to 15.5) ms
same,∆∆QTcI,healthy subjects [5]; [29],12.8 (10.2 to 15.6) ms
same,∆∆HR,healthy subjects [5]; [30],0.4 (−1.0 to 1.7) bpm
same,∆∆QT,healthy subjects [5]; [30],13.6 (10.4 to 16.9) ms
same,∆∆QTcI,healthy subjects [5]; [30],14.1 (11.7 to 16.5) ms
same,∆∆QTcI,"healthy subjects [5]; moxifloxacin 400 mg, 2:00 h post-dose, listed as moxifloxacin",14.1 ms
same,∆∆HR,healthy subjects [5]; [31],2.7 (1.1 to 4.4) bpm
same,∆∆QT,healthy subjects [5]; [31],10.3 (6.9 to 13.8) ms
same,∆∆QTcI,healthy subjects [5]; [31],14.1 (11.4 to 16.7) ms
same,∆∆HR,healthy subjects [5]; [32],1.5 (0.1 to 2.8) bpm
same,∆∆QT,healthy subjects [5]; [32],9.2 (6.1 to 12.2) ms
same,∆∆QTcI,healthy subjects [5]; [32],10.4 (8.0 to 12.8) ms
same,Mean (SE) [90 % CI] ∆∆ QTcI,"healthy subjects [5]; moxifloxacin 400 mg, placebo-corrected change from baseline between 1.5 and 3 h post-dose",14.2 ms
[H]/N=C(/N)c1ccc(NCc2nc3cc(C(=O)N(CCC(=O)O)c4ccccn4)ccc3n2C)cc1 [dabigatran],changes in QT interval,[8],no noteworthy changes in QT interval
same,AUC(0-inf),[1]; 150 mg,540 ng·h/mL
same,Cmax,[1]; 150 mg,71.4 ng/mL
same,Tmax,[1]; 150 mg,2.03 h
same,AUC(0-inf),[1]; 600 mg,2230 ng·h/mL
same,Cmax,[1]; 600 mg,281 ng/mL
same,Tmax,[1]; 600 mg,3 h
same,Predicted value of ∆∆HR at Cmax (90 % CI),healthy subjects [9]; [33],0.3 (−0.4 to 1.0) bpm
same,Predicted value of ∆∆QTcI at Cmax (90 % CI),healthy subjects [9]; [33],0.4 (−0.9 to 1.7) ms
same,Predicted value of ∆∆HR at Cmax (90 % CI),healthy subjects [9]; [34],0.4 (−0.9 to 1.7) bpm
same,Predicted value of ∆∆QTcI at Cmax (90 % CI),healthy subjects [9]; [34],0.5 (−1.5 to 2.6) ms
same,PK-∆∆HR intercept,healthy subjects [9]; [35],0.26 bpm
same,PK-∆∆HR slope,healthy subjects [9]; [35],0.0005 bpm/[ng/mL]
same,PK-∆∆QTcI intercept,healthy subjects [9]; [36],0.34 ms
same,PK-∆∆QTcI slope,healthy subjects [9]; [36],~0 ms/[ng/mL]
same,PK-∆∆QTcI slope,"healthy subjects [9]; exposure-response analysis for placebo-corrected CfB of QTcI, post hoc, listed as Free non-conjugated dabigatran",0.0006 ms/[ng/mL]
same,90 % CI of the predicted value of placebo-corrected CfB of QTcI at gMean Cmax,"healthy subjects [9]; total and free dabigatran, each dose (all four analyses)",below 3 ms
same,effect on hERG-mediated potassium current,[10],did not modify the hERG-mediated potassium current
same,influence on cardiovascular parameters,anaesthetised pigs,no influence on cardiovascular parameters
same,half-life,[11],12 to 17 h
